Assay results as given in paper PMC7284125, “Identification of annotated bioactive molecules that impair motility of the blood fluke Schistosoma mansoni” (International Journal for Parasitology: Drugs and Drug …, 2020).

The compounds below were run on S. mansoni schistosomulae (assay: Phenotypic primary screen assay on schistosomulae (phenotype; viability by methylene blue dye exclusion)). Details: three-day-old schistosomulae, 10 μM, 24 h; estimated 5 days post compound exposure.
Type: cell-based, Schistosoma mansoni
Method: Puerto Rican strain Biomphalaria glabrata snails infected with S. mansoni were kindly provided by Dr. Fred Lewis (Biomedical Research Institute and BEI Resources, MD, USA). Schistosomulae were obtained by exposing six to eight weeks-old snails to continuous light for 2 h at 32 °C. […] At this point, animals with internal dark granulations and with no observable body contraction/relaxation cycles were considered dead.
Schistosomulae were monitored under a stereo microscope (SMZ1270, Nikon). Phenotypic observations were made by analyzing schistosomulae, 24 h after drug addition to assess any immediate effect and five days post-compound exposure to observe long-term impacts on both the movement and overall body shape in comparison to control animals exposed to DMSO only.

Row | SMILES | Phenotype
1 | COCCCN1CCC(NC(=O)c2cc(Cl)c(N)c3c2OCC3)CC1 [Prucalopride] | elongated
2 | C=CC[C@]1(O)CC[C@H]2[C@@H]3CCC4=CC(=O)CCC4=C3C=C[C@@]21C [Altrenogest] | elongated
3 | CN(C)[C@@H](CCOc1cccc2ccccc12)c1ccccc1 [Dapoxetine] | elongated, granulated
4 | Cc1c(C(=O)NN2CCCCC2)nn(-c2ccc(Cl)cc2Cl)c1-c1ccc(Cl)cc1 [Rimonabant] | abnormal morphology, granulated

What follows are compounds tested on S. mansoni schistosomulae (assay: Motility assay on schistosomulae (pixel displacement, relative to DMSO control)). Details: Schistosoma mansoni, 120 h; schistosomulae, secondary screen, 24h exposure, read at D5, 1 µM; read-out: Fractional motility.
Type: cell-based, Schistosoma mansoni
Method: Puerto Rican strain Biomphalaria glabrata snails infected with S. mansoni were kindly provided by Dr. Fred Lewis (Biomedical Research Institute and BEI Resources, MD, USA). Schistosomulae were obtained by exposing six to eight weeks-old snails to continuous light for 2 h at 32 °C. The resulting suspension of cercaria was then mechanically transformed as described ([Lewis, 2001]) and cultured in Opti-MEM/antibiotics (Thermo Fisher Scientific, Waltham, MA) containing 100 μg/mL streptomycin and 100 units/ml penicillin supplemented with 5% fetal bovine serum (FBS; Thermo Fisher). Parasite cultures were incubated at 37 °C with 5% CO2 for at least 10 days with no apparent loss of viability. At this point, animals with internal dark granulations and with no observable body contraction/relaxation cycles were considered dead.
(§1) Schistosomulae (200/well) and adult parasites (unpaired worms) were maintained in 300 μL OPTI-MEM with 5% dialyzed FBS (without antibiotics) and exposed to compounds at 1 and 10 μM for 24 h. A kinetic assay consisting of 1, 3, 6 and 12 h incubation times was performed on selected hits by motility monitoring using a stereo microscope (SMZ1270, Nikon) for adults and an inverted microscope for schistosomulae (eclipse TE2000-U, Nikon) connected to a monochrome camera (DS-Qi2, Nikon) for image acquisition. Images were recorded at a rate of 10 frames/s for a period of 1 min and videos were analyzed using ImageJ software (version 1.41, NIH, USA). Parasite movement quantification and data analysis protocols were applied using the pixel displacement method ([Patocka et al., 2014]; [Rashid et al., 2015]) and compared to control parasites treated with DMSO. Parasites were then washed several times in Opti-MEM, 5% FBS and incubated up to an additional three days (schistosomulae) or five days (adult worms) at 37 °C, 5% CO2 and motility was recorded as described above.

Row | SMILES | activity at 1 µM
5 | COCCCN1CCC(NC(=O)c2cc(Cl)c(N)c3c2OCC3)CC1 [Prucalopride] | -11%
6 | C=CC[C@]1(O)CC[C@H]2[C@@H]3CCC4=CC(=O)CCC4=C3C=C[C@@]21C [Altrenogest] | -12%
7 | Cc1c(C(=O)NN2CCCCC2)nn(-c2ccc(Cl)cc2Cl)c1-c1ccc(Cl)cc1 [Rimonabant] | -21%

Same assay, conditions: Schistosoma mansoni; Selleckchem customized library secondary screen, 24h, D1, 1 µM; read-out: Fractional motility

Row | SMILES | activity at 1 µM
8 | CN(C)[C@@H](CCOc1cccc2ccccc12)c1ccccc1 [Dapoxetine] | 253%

Same assay, conditions: Schistosoma mansoni; schistosomulae, secondary screen, 24h exposure, read at D1, 1 µM; read-out: Fractional motility

Row | SMILES | activity at 1 µM
9 | COCCCN1CCC(NC(=O)c2cc(Cl)c(N)c3c2OCC3)CC1 [Prucalopride] | 121%
10 | C=CC[C@]1(O)CC[C@H]2[C@@H]3CCC4=CC(=O)CCC4=C3C=C[C@@]21C [Altrenogest] | 147%
11 | Cc1c(C(=O)NN2CCCCC2)nn(-c2ccc(Cl)cc2Cl)c1-c1ccc(Cl)cc1 [Rimonabant] | 433%

Same assay, conditions: Selleckchem customized library secondary screen, 24h, D1, 10 µM

Row | SMILES | Fractional motility
12 | CN(C)[C@@H](CCOc1cccc2ccccc12)c1ccccc1 [Dapoxetine] | 69.58

Same assay, conditions: Selleckchem customized library secondary screen, 24h, D5, 10 µM

Row | SMILES | Fractional motility
13 | CN(C)[C@@H](CCOc1cccc2ccccc12)c1ccccc1 [Dapoxetine] | 15.51

Same assay, conditions: schistosomulae, secondary screen, 24h exposure, read at D1, 10 µM

Row | SMILES | Fractional motility
14 | COCCCN1CCC(NC(=O)c2cc(Cl)c(N)c3c2OCC3)CC1 [Prucalopride] | 6.36
15 | C=CC[C@]1(O)CC[C@H]2[C@@H]3CCC4=CC(=O)CCC4=C3C=C[C@@]21C [Altrenogest] | 10.00
16 | Cc1c(C(=O)NN2CCCCC2)nn(-c2ccc(Cl)cc2Cl)c1-c1ccc(Cl)cc1 [Rimonabant] | 12.27

Same assay, conditions: schistosomulae, secondary screen, 24h exposure, read at D5, 10 µM

Row | SMILES | Fractional motility
17 | COCCCN1CCC(NC(=O)c2cc(Cl)c(N)c3c2OCC3)CC1 [Prucalopride] | -0.28
18 | C=CC[C@]1(O)CC[C@H]2[C@@H]3CCC4=CC(=O)CCC4=C3C=C[C@@]21C [Altrenogest] | -0.06
19 | Cc1c(C(=O)NN2CCCCC2)nn(-c2ccc(Cl)cc2Cl)c1-c1ccc(Cl)cc1 [Rimonabant] | 4.07

Each compound was assayed on S. mansoni adult worms (assay: Motility assay on adult parasites (pixel displacement, relative to DMSO control)). Details: secondary screen, 10 μM, D1, Female adult worms.
Type: cell-based, Schistosoma mansoni
Method: Adult parasites were collected from 40 day-old female CD1 mice (Charles River) previously inoculated by the tail infection method ([Lewis, 2001]). Six weeks post-infection, mice were sacrificed, and adult worms extracted after perfusion of in the hepatic portal vein and mesenteric venules ([Lewis, 2001]). Animal procedures were reviewed and approved by the Facility Animal Care Committee of McGill University (Protocol No. 3346) and were conducted in accordance with the guidelines of the Canadian Council on Animal Care.
as §1

Row | SMILES | Fractional motility
20 | COCCCN1CCC(NC(=O)c2cc(Cl)c(N)c3c2OCC3)CC1 [Prucalopride] | -0.26
21 | C=CC[C@]1(O)CC[C@H]2[C@@H]3CCC4=CC(=O)CCC4=C3C=C[C@@]21C [Altrenogest] | -0.04
22 | CN(C)[C@@H](CCOc1cccc2ccccc12)c1ccccc1 [Dapoxetine] | 2.14
23 | Cc1c(C(=O)NN2CCCCC2)nn(-c2ccc(Cl)cc2Cl)c1-c1ccc(Cl)cc1 [Rimonabant] | -0.30

Same assay, conditions: secondary screen, 10 μM, D1, Male adult worms

Row | SMILES | Fractional motility
24 | COCCCN1CCC(NC(=O)c2cc(Cl)c(N)c3c2OCC3)CC1 [Prucalopride] | 0.72
25 | C=CC[C@]1(O)CC[C@H]2[C@@H]3CCC4=CC(=O)CCC4=C3C=C[C@@]21C [Altrenogest] | -0.0348
26 | CN(C)[C@@H](CCOc1cccc2ccccc12)c1ccccc1 [Dapoxetine] | 2.05
27 | Cc1c(C(=O)NN2CCCCC2)nn(-c2ccc(Cl)cc2Cl)c1-c1ccc(Cl)cc1 [Rimonabant] | 0.0659

Same assay, conditions: secondary screen, 10 μM, D5, Female adult worms

Row | SMILES | Fractional motility
28 | COCCCN1CCC(NC(=O)c2cc(Cl)c(N)c3c2OCC3)CC1 [Prucalopride] | -0.27
29 | C=CC[C@]1(O)CC[C@H]2[C@@H]3CCC4=CC(=O)CCC4=C3C=C[C@@]21C [Altrenogest] | -0.50
30 | CN(C)[C@@H](CCOc1cccc2ccccc12)c1ccccc1 [Dapoxetine] | -0.24
31 | Cc1c(C(=O)NN2CCCCC2)nn(-c2ccc(Cl)cc2Cl)c1-c1ccc(Cl)cc1 [Rimonabant] | -0.41

Same assay, conditions: secondary screen, 10 μM, D5, Male adult worms

Row | SMILES | Fractional motility
32 | COCCCN1CCC(NC(=O)c2cc(Cl)c(N)c3c2OCC3)CC1 [Prucalopride] | 0.34
33 | C=CC[C@]1(O)CC[C@H]2[C@@H]3CCC4=CC(=O)CCC4=C3C=C[C@@]21C [Altrenogest] | 0.0449
34 | CN(C)[C@@H](CCOc1cccc2ccccc12)c1ccccc1 [Dapoxetine] | -0.50
35 | Cc1c(C(=O)NN2CCCCC2)nn(-c2ccc(Cl)cc2Cl)c1-c1ccc(Cl)cc1 [Rimonabant] | -0.55

The compounds below were run on S. mansoni schistosomulae (assay: Phenotypic primary screen assay on schistosomulae (phenotype; viability by methylene blue dye exclusion)). Details: Schistosoma mansoni; three-day-old schistosomulae, 10 μM, 24 h; calculated 5 days post compound exposure; read-out: Viability (%).
Type: cell-based

Row | SMILES | viability at 10 µM
36 | COCCCN1CCC(NC(=O)c2cc(Cl)c(N)c3c2OCC3)CC1 [Prucalopride] | 96%
37 | C=CC[C@]1(O)CC[C@H]2[C@@H]3CCC4=CC(=O)CCC4=C3C=C[C@@]21C [Altrenogest] | 90%
38 | CN(C)[C@@H](CCOc1cccc2ccccc12)c1ccccc1 [Dapoxetine] | 97.5%
39 | Cc1c(C(=O)NN2CCCCC2)nn(-c2ccc(Cl)cc2Cl)c1-c1ccc(Cl)cc1 [Rimonabant] | 98.5%
